Measured values: US9346803B2 (Vanderbilt University, priority 2011, dated 2016)
pIC50: −log10 of the molar value. Entries after “also recorded” stand apart in the source; their conditions may differ.

Tests used:
AKR1C1 = AKR1C1 (Homo sapiens (Human), UniProt Q04828); assay: Inhibition of S-tetralol oxidation, AKR1C1; format: biochemical; details: for pIC50: S-tetralol substrate at Km
Source text: Inhibitors were initially screened for an ability to block the NADP+ dependent oxidation of the artificial substrate S-tetralol catalyzed by AKR1C3. S-tetralol was used since it is also a substrate of the highly related AKR1C1 and AKR1C2 enzymes.
Initially, the ratios of IC50 values for AKR1C2 versus AKR1C3 were compared. High ratios were indicative of high selectivity for AKR1C3.
The latter assay is used to determine whether lead compounds act as AR agonists or block 5α-DHT reporter gene activity by acting as androgen receptor antagonists.

AKR1C2 = AKR1C2 (Homo sapiens (Human), UniProt P52895); assay: Inhibition of S-tetralol oxidation, AKR1C2; format: biochemical; details: for pIC50: S-tetralol substrate at Km
AKR1C2, sequence (P52895 whole entry): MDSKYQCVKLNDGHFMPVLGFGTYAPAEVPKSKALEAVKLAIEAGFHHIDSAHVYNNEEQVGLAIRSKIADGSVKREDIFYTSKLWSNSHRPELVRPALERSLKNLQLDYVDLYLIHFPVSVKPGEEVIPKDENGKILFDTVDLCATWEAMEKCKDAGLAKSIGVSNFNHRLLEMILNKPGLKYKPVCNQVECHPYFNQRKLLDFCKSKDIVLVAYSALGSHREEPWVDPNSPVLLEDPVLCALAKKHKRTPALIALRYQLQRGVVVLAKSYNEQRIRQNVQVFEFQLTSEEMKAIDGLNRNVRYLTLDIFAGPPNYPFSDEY

[1] = biological target: homogeneous recombinant AKR1C3 (Homo sapiens (Human), UniProt P42330); assay: Inhibition of NADP+ dependent oxidation of S-tetralol catalyzed by AKR1C3; format: biochemical; details: S-tetralol substrate at Km
homogeneous recombinant AKR1C3, sequence (P42330 whole entry): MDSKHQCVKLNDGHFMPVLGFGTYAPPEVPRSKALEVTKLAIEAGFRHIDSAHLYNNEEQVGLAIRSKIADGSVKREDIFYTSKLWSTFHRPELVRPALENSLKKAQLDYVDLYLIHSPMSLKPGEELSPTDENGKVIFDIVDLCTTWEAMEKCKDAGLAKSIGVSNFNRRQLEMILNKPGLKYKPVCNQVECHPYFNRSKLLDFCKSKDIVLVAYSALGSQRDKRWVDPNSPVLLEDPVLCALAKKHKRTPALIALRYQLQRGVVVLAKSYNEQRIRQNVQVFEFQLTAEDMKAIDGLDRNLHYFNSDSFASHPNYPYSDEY

COX-1 = assay: Screen against COX-1; format: biochemical; details: at concentrations greater than 100 μM
androgen receptor (AR) = assay: HeLa-cell androgen receptor (AR) luciferase reporter gene assay driven by DHT; format: cell-based; details: for AR agonism or antagonism (DHT stimulation of the AR): AR luciferase reporter gene assay; for androgen receptor antagonism: luciferase AR reporter gene assay driven by DHT, FIG. 11
Source text: Secondary screens involve one or more of: (a) a full-screen against all nine human recombinant AKR enzymes to ensure there are no-intended off-target effects; (b) a screen against COX-1 and COX-2 to reaffirm that compounds will not act as NSAIDs; and (c) a HeLa-cell androgen receptor (AR) reporter gene assay. The latter assay is used to determine whether lead compounds act as AR agonists or block 5α-DHT reporter gene activity by acting as androgen receptor antagonists.

[2] = test system: LNCaP cells stably transfected with AKR1C3; assay: Conversion of Δ4-androstene-3,17-dione to testosterone in LNCaP-AKR1C3 transfected cells; format: cell-based, human; details: 30 μM
Source text: Tertiary screens involve one or more of (d) expanded reporter gene assays to determine whether compounds act as agonists or antagonists of other steroid hormone receptors; (e) inhibition of the conversion of Δ^4-androstene-3,17-dione to testosterone in androgen receptor dependent prostate cancer cells (including, but not limited to LNCaP; available from the American type Culture Collection (ATCC), Manassas, Va., United States of America) stably transfected with AKR1C3; and (f) inhibition of growth of castrate-resistant prostate cancer cells in a murine xenograft model.

AKR1C4 = AKR1C4 (Homo sapiens (Human), UniProt P17516); assay: Inhibition of S-tetralol oxidation, AKR1C4; format: biochemical
AKR1C4, sequence (P17516 whole entry): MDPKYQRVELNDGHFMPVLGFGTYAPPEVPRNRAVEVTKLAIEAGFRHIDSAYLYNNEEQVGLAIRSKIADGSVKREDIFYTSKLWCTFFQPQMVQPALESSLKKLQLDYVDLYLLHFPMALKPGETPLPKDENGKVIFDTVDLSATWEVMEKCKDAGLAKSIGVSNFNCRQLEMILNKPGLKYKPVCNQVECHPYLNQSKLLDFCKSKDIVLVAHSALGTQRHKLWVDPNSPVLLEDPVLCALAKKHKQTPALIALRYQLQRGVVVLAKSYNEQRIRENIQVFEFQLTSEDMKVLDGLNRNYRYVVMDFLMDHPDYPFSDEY

[3] = test system: VCaP cells in a murine xenograft model; details: Cai et al., 2011; cited from earlier work
VCaP cells = assay: Δ4-androstene-3,17-dione driven expression of PSA in VCaP cells; format: cell-based, human

AKR1C1, sequence (Q04828 whole entry): as the sequence (P52895 whole entry) above, with V38T, H47R, V54L, S87C, M151V, H170R, L172Q counted along it

Question: What does the source list for `COc1ccc2c(c1)c(C)c(CCC(=O)NS(C)(=O)=O)n2C(=O)c1ccc(Cl)cc1` [drawing 38]?
Answer: pIC50 (AKR1C1): 4.00; pIC50 (AKR1C2): 4.03; pIC50 [1]: 6.47

Question: With `COc1ccc2c(c1)c(CC(=O)O)c(C)n2C(=O)c1ccc(C(F)(F)F)cc1` as the compound, how does the pIC50 (AKR1C2) read?
Answer: The pIC50 was 4.45.

Question: What does the source list for `COc1ccc2c(c1)c(C)c(CCC(=O)NS(C)(=O)=O)n2C(=O)c1ccc(Cl)cc1` [Compound 3]?
Answer: COX-1 inhibition (COX-1): did not inhibit COX-1; AR agonism or antagonism (DHT stimulation of the AR) (androgen receptor (AR)): did not act as AR agonists or antagonists; androgen receptor antagonism (androgen receptor (AR)): lack of androgen receptor antagonism; conversion of Δ4-androstene-3,17-dione to testosterone [2]: completely blocked

Question: Which results are given for `COc1ccc2c(c1)c(C)c(CCC(=O)O)n2C(=O)c1ccc(Cl)cc1` [Compound 2]?
Answer: COX-1 inhibition (COX-1): did not inhibit COX-1; AR agonism or antagonism (DHT stimulation of the AR) (androgen receptor (AR)): did not act as AR agonists or antagonists; androgen receptor antagonism (androgen receptor (AR)): lack of androgen receptor antagonism; conversion of Δ4-androstene-3,17-dione to testosterone [2]: completely blocked

Question: With `COc1ccc2c(c1)c1c(n2C(=O)c2ccc(Cl)cc2)CCC(C(=O)O)C1` (stereo not shown) as the compound, how does the pIC50 (AKR1C4; S-tetralol substrate at Km) read?
Answer: Its pIC50 is 5.50.

Question: With `COc1ccc2c(c1)c(CC(=O)O)c(C)n2C(=O)c1ccc(CCl)cc1` as the compound, how does the pIC50 (AKR1C1) read?
Answer: The pIC50 was 4.00.

Question: And the pIC50 (AKR1C2)?
Answer: Its pIC50 is 4.39.

Question: What about the pIC50 [1] of the same compound?
Answer: Its pIC50 is 6.92.

Question: Which “AR agonism or antagonism (DHT stimulation of the AR)” value (androgen receptor (AR)) does the source give for `COc1ccc2c(c1)c(CC(=O)NS(=O)(=O)C(F)(F)F)cn2C(=O)c1ccc(Cl)cc1` [Compound 1] here?
Answer: The value was “did not act as AR agonists or antagonists”.

Question: And the androgen receptor antagonism (androgen receptor (AR))?
Answer: Its androgen receptor antagonism is “lack of androgen receptor antagonism”.

Question: With `COc1ccc2c(c1)c(CC(=O)NS(=O)(=O)C(F)(F)F)c(C)n2C(=O)c1ccc(Cl)cc1` as the compound, how does the “fold selectivity for AKR1C3 over AKR1C1” value (AKR1C1; number in parenthesis) read?
Answer: The value was > 135 fold.

Question: What about the pIC50 (AKR1C2) of the same compound?
Answer: The pIC50 was 4.09.

Question: What about the “fold selectivity for AKR1C3 over AKR1C2” value (AKR1C2; number in parenthesis, ratio of IC50 values) of the same compound?
Answer: The value was 108 fold.

Question: And the “fold selectivity for AKR1C3 over AKR1C4” value (AKR1C4; number in parenthesis)?
Answer: Its value is > 135 fold.

Question: And the pIC50 [1]?
Answer: Its pIC50 is 6.13.

Question: With `CCc1c(CCC(=O)O)n(C(=O)c2ccc(Cl)cc2)c2ccc(OC)cc12` as the compound, how does the pIC50 (AKR1C1) read?
Answer: The pIC50 was 4.51.

Question: And the pIC50 (AKR1C2)?
Answer: Its pIC50 is 4.30.

Question: And the pIC50 [1]?
Answer: Its pIC50 is 7.05.

Question: With `COc1ccc2c(c1)c(C)c(CCC(=O)O)n2C(=O)c1ccc(Cl)cc1` [drawing 37] as the compound, how does the pIC50 (AKR1C1) read?
Answer: The pIC50 was 4.75.

Question: What about the pIC50 (AKR1C2) of the same compound?
Answer: Its pIC50 is 4.84.

Question: For `COc1ccc2c(c1)c(CC(=O)O)c(C)n2C(=O)c1ccc(Cl)cc1` [indomethacin], which “AR dependent gene transcription and tumor growth in xenograft” value [3] is on record?
Answer: The value was “block AR dependent gene transcription and cell growth and proliferation of the tumor”.

Question: What about the “Δ4-androstene-3,17-dione driven expression of PSA” value (VCaP cells) of the same compound?
Answer: Its value is “blocked; also recorded: inhibition”.

Question: With `COc1ccc2c(c1)c(CC(=O)O)c(C)n2C(=O)c1ccc(C)cc1` as the compound, how does the pIC50 [1] read?
Answer: Its pIC50 is 6.80.
